The text below walks through data of PubChem BioAssay (NCI).

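Where inhibition never reached the appropriate level, the endpoint shown equals the highest concentration tested. Otherwise, values were interpolated linearly from a five-concentration, 48-hour dose response in 96-well plates. The concentration for 50% growth inhibition is given as GI50. Definition used: TGI = concentration required for complete inhibition of growth.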

Holding throughout (experiment): growth of human tumour cells (NCI), 48 h
Assay [1] deals with CCRF-CEM leukemia.
In assay [2] the test system is HT29 colon.
Assay [3] relates to MALME-3M melanoma.
The test system of assay [4] is NCI-H23 lung.
Assay [5] deals with ACHN renal.
Assay [6] concerns 786-0 renal.
In assay [7] the test system is OVCAR-3 ovarian.
Assay [8] relates to UACC-62 melanoma.
Assay [9] has as its system SF-539 CNS.
Assay [10] relates to M14 melanoma.

`Cc1cccc(C)c1NC(=O)CCC/C(CC(=O)c1ccc(F)cc1)=N\NC(=O)C(=O)NN`: the TGI in assay [1], in [2], in assay [3], in assay [4], in assay [5] and in [6] was more than 100 µM throughout. Also, the TGI in [7], in assay [8], in [9] and in assay [10] was more than 100 µM throughout.
With `Nc1ccc(-c2cc(C(=O)Nc3nccs3)[nH]c(=S)n2)cc1`, the TGI in [1], in [2], in assay [3], in assay [4], in assay [5] and in assay [6] was more than 100 µM each time. Moreover, the TGI in [7], in assay [8], in [9] and in assay [10] was more than 100 µM each time.
As for `O=[N+]([O-])c1cccc(-c2nc(-c3ccc(Cl)cc3Cl)cn2-c2ccccc2)c1`, the TGI in assay [1] is more than 18.7 µM; in assay [2] it was 5.42 µM; in [3], 2.11 µM; in assay [4], more than 27.1 µM; in [5], 5.42 µM; in [6], 2.88 µM. Besides, the TGI in assay [7] is 0.945 µM; in assay [8], more than 33.3 µM; in assay [9], 4.33 µM; in assay [10], more than 14.9 µM. Besides, the GI50 is 1.25 µM in [2]; 0.704 µM in assay [3]; 5.15 µM in assay [4]; 1.3 µM in assay [5]; 0.995 µM in assay [6]; 0.458 µM in assay [7]. In addition, the GI50 is 6.73 µM in assay [8], 1.02 µM in [9] and 1.45 µM in assay [10].
Regarding `C[P+](C)(C)C`, the TGI in [1], in [2], in [3], in assay [4], in [5] and in assay [6] was more than 100 µM throughout. The TGI in assay [7], in assay [8], in [9] and in assay [10] was more than 100 µM throughout.
Consider `c1ccc(CN2CCc3[nH]c4ccccc4c3C2)cc1`, for which the TGI in assay [1] was more than 82.6 µM; in [2], 36.4 µM; in [3] it was 35 µM; in [4], more than 92.6 µM; in assay [5], 99.8 µM; in assay [6], 44.5 µM. Also, the TGI is more than 74.7 µM in [7], 66.9 µM in assay [8], 56.2 µM in [9] and 33.1 µM in [10].
As for `Cc1ccc(C(=O)NCCCOc2ccc(N3C(N)=NC(N)=NC3(C)C)cc2Cl)cc1S(=O)(=O)F`, the GI50 in [1] was 5.33 µM; in [2], 6.61 µM; in assay [3] it was more than 100 µM; in assay [4] it was 12.8 µM; in [5], more than 100 µM; in assay [6], 80 µM. Moreover, the GI50 is more than 100 µM in [7], 9.39 µM in assay [8], 8.1 µM in [9] and 44.7 µM in [10]. Further, the TGI in assay [1], in assay [2], in assay [3], in [4], in assay [5] and in assay [6] was more than 100 µM each time. The TGI in assay [7], in [8], in assay [9] and in assay [10] was more than 100 µM each time.
In the case of `CC(C)c1ccc(C2NC(=S)NC3=C2c2ccccc2C3=O)cc1` (centres undefined), the TGI was more than 68 µM in assay [1]; more than 59 µM in assay [2]; more than 62.9 µM in assay [3]; more than 59.2 µM in assay [4]; more than 55.9 µM in assay [5]; more than 60 µM in assay [6]. For the same compound, the TGI in [7] was more than 56.7 µM; in assay [8], more than 52.8 µM; in assay [9], 37.8 µM; in assay [10], more than 57 µM.
For `O=C(Cc1nc2sc3c(c2c(=O)[nH]1)CCCC3)Nc1ccccc1`, the TGI in assay [1], in [2], in [3], in assay [4], in assay [5] and in assay [6] was more than 100 µM in each case. Besides, the TGI in [7], in [8], in assay [9] and in assay [10] was more than 100 µM in each case.
Regarding `CCCCC(C)/C=C/C(=O)C1=C(O)/C(=C/C(=O)O)OC1=O` (centres undefined), the TGI in assay [1], in assay [2], in assay [3], in [4], in [5] and in assay [6] was more than 100 µM throughout. The TGI in [7], in [8], in [9] and in [10] was more than 100 µM each time.
On to `CCC/C=C\C=C\C1(NS(=O)(=O)c2ccc(C)cc2)CCC(C(C)(C)C)CC1` (centres undefined), for which the TGI amounted to 24.2 µM in assay [1]; 30.2 µM in [2]; 47.9 µM in [3]; 55 µM in assay [4]; 53.7 µM in [5]; 29.9 µM in assay [6]. For the same compound, the TGI in [7] was 21.9 µM; in assay [8], 88.7 µM; in assay [9] it was more than 100 µM; in assay [10], 37.1 µM.
`O=C1CC(c2c(-c3ccccc3)[nH]c3ccccc23)C(=O)N1c1ccccc1` (centres undefined): the TGI in assay [1], in assay [2], in assay [3], in assay [4], in assay [5] and in assay [6] was more than 100 µM throughout. The TGI in assay [7], in assay [8], in assay [9] and in [10] was more than 100 µM each time.
Consider `CCCCCCCCCCCCCCCCCCNCc1ccc(Cl)cc1`, for which the GI50 in assay [1] is 2.69 µM; in assay [2], 1.73 µM; in [3] it was 7.37 µM; in [4], 3.07 µM; in assay [5], 2.15 µM; in [6], 8.61 µM. Besides, the GI50 in assay [7] is 3.07 µM; in assay [8] it was 4.02 µM; in assay [9] it was 12.1 µM; in assay [10], 2.28 µM. In addition, the TGI worked out at 8.66 µM in [1]; 3.46 µM in [2]; 22.6 µM in assay [3]; 12 µM in assay [4]; 5.54 µM in [5]; 25.1 µM in [6]. The TGI in [7] was 11 µM; in assay [8], 15.5 µM; in assay [9], 29.4 µM; in assay [10], 7.04 µM.
